From patent US10023541B2, “Urea compounds and their use as enzyme inhibitors” (BIAL-PORTELA & CA, S.A., priority 2012, dated 2018)
Like-named read-outs stand apart in the source and are kept apart here.

Assays:
FAAH [1] = target: T1, FAAH (Mus musculus, UniProt O08914); assay: In vivo protocol: FAAH activity in tissue homogenates after oral dosing of mice; conditions: for Peripheral Selectivity: FAAH activity in liver divided by FAAH activity in brain, lower = more peripherally selective; for activity at 3 mg/kg / activity at 0.1 mg/kg / activity at 1 mg/kg / activity at 10 mg/kg: mouse
T1 construct: A fragment of liver, left lung lobe and brain without cerebellum were removed; from tissue; host or cells: mouse brain, liver and lung homogenates
T1 sequence (O08914 1-579): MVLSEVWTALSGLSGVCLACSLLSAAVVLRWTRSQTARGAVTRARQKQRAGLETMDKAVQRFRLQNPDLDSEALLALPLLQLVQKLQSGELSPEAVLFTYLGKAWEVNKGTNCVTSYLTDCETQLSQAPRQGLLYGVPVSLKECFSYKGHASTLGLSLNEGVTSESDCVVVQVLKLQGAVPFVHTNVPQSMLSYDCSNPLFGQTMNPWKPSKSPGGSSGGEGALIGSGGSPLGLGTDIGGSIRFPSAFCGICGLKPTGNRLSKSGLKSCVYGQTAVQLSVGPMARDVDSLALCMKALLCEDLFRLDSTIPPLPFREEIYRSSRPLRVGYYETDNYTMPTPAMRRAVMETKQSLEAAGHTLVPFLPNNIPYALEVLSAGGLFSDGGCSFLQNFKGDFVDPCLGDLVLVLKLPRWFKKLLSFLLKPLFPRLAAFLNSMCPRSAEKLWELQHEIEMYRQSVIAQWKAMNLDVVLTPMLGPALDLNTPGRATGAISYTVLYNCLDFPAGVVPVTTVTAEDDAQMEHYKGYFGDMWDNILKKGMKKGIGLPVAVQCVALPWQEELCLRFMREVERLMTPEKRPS
Procedure: In vivo testing was performed according to the protocol described below. BRh (brain homogenate) indicates inhibition in central nervous tissue, in this case, brain, and LVh (liver homogenate) indicates inhibition in peripheral tissue, in this case, liver. The controls were the reaction mix minus the test compounds. Therefore, a low value for the test compound indicates a strong inhibitor.
The animals used for experiments were male NMRI mice (weighing 27-44 g) obtained from Interfauna Ibérica (Spain). Mice were kept 5 per cage, under controlled environmental conditions (12 hr light/dark cycle and room temperature 221° C.). Food and tap water were allowed ad libitum and the experiments were all carried out during daylight hours.
[…] compounds via oral route (8 ml/kg; compound suspended in 0.5% carboxymethylcellulose (CMC) or solubilized in water) or vehicle (controls) using animal feeding stainless steel curve needles (Perfectum, U.S.A.). Fifteen minutes before sacrifice animal were anesthetized with pentobarbital 60 mg/kg administered intraperitoneally. A fragment of liver, left lung lobe and brain without cerebellum were removed and put in plastic vials containing membrane buffer (3 mM MgCl2, 1 mM EDTA, 50 mM Tris HCl pH 7.4). Tissues were stored at −30° C. until analysis.
Animals were always fasted overnight before administration of compounds except for time points of >18 h, where food was removed on the morning of day of administration and the compound was administered in the afternoon of the same day. Animals were then given water but nothing else.
Tissues were thawed on ice and were homogenized in 10 volumes of membrane buffer (3 mM MgCl2, 1 mM EDTA, 50 mM Tris HCl pH 7.4) with either Potter-Elvejhem (brains—8 strokes at 500 rpm) or Heidolph Diax (livers—2 strokes at position 5 for 20 sec with 30 sec pauses).
Total protein in tissues was determined with the BioRad Protein Assay (BioRad) using a standard curve of BSA (50-250 μg/ml).
Reaction mix (total volume of 200 μl) contained: 2 μM AEA (2 μM AEA+5 nM ^3H-AEA), 0.1% fatty acid free BSA, 15 μg (brain), 5 μg (liver) or 50 μg (lung) protein, in 1 mM EDTA, 10 mM Tris pH 7.6. After a 15 min pre-incubation period at 37° C. reaction was started by the addition of the substrate solution (cold AEA+radiolabelled AEA+BSA). Reaction was carried out for 10 min (brain and lung) or 7 min (liver) before termination by the addition of 400 μl activated charcoal suspension (8 g charcoal in 32 ml 0.5 M HCl in continuous agitation). After a 30 min incubation period at room temperature with agitation, charcoal was sedimented by centrifugation in microfuge (10 min at 13000 rpm). 200 μl of the supernatant were added to 800 μl Optiphase Supermix scintillation cocktail previously distributed in 24-well plates. Counts per minute (cpm) were determined in a MicrobetaTriLux scintillation counter.
In each assay blanks (without protein) were prepared.
The percentage of remaining enzymatic activity was calculated with respect to controls and after blank subtraction.

FAAH [2] = target: T1, FAAH; assay: ED50 determination of FAAH inhibition in liver after p.o. administration; type: in vivo; conditions: po, read-out: Liver ED50 (95CI)
From the text: Confidence intervals (95%) are included.

[3] = CYPs metabolic stability assay in MLM; type: in vitro ADME, mouse; conditions: 1 h, 50 μM; for Metabolic Stability (% of Remaining) Mouse CYP+: with NADPH; for Metabolic Stability (% of Remaining) Mouse CYP−: without NADPH
Procedure: (§1) Stability of the test compounds was performed in MLM (mouse liver microsomes) or HLM (human liver microsomes) in the presence and in the absence of NADPH.
(§2) The stability was measured using the incubation mixture (100 μl total volume) contained 1 mg/ml total protein, MgCl2 5 mM and 50 mM K-phosphate buffer. Samples were incubated in the presence and in the absence of NADPH 1 mM. Reactions were pre-incubated 5 min and the reaction initiated with the compound under test (5 μM for HLM and 50 μM for MLM). Samples were incubated for 60 min in a shaking water bath at 37° C. The reaction was stopped by adding 100 μl of acetonitrile. Samples were then centrifuged, filtered and supernatant injected in HLPC-MSD. Test compounds were dissolved in DMSO and the final concentration of DMSO in the reaction was below 0.5% (v/v). At TO acetonitrile was added before adding the compound. All experiments were performed with samples in duplicate.
(§3) The stability data are given as % of remaining compound after 1 h exposure to MLM or HLM. 100% means no metabolic reaction at all and 0% corresponds to full enzymatic degradation. “CYP−” refers to the absence of cofactor (NADPH) which is essential for CYP metabolic reactions. Therefore “CYP−” can be regarded as control value. “CYP+” refers to the presence of cofactor and the enzymatic degradation may take place according to the stability of the test compound.

[4] = CYPs metabolic stability assay in HLM; type: in vitro ADME, human; conditions: 1 h, 5 μM; for Metabolic Stability (% of Remaining) Human CYP+: with NADPH; for Metabolic Stability (% of Remaining) Human CYP−: without NADPH
Procedure: as §1, §2, §3

FAAH [5] = target: T2, FAAH (Rattus norvegicus, UniProt P97612); assay: Determination of IC50 in rat brain membrane FAAH enzymatic assay (3H-AEA); type: biochemical; conditions: rat brain membranes, 2 μM AEA, 15 min preincubation
T2 construct: Frozen brains from 4 Wistar rats were homogenized; from tissue; host or cells: Wistar rat brain membranes
T2 sequence (P97612 1-579): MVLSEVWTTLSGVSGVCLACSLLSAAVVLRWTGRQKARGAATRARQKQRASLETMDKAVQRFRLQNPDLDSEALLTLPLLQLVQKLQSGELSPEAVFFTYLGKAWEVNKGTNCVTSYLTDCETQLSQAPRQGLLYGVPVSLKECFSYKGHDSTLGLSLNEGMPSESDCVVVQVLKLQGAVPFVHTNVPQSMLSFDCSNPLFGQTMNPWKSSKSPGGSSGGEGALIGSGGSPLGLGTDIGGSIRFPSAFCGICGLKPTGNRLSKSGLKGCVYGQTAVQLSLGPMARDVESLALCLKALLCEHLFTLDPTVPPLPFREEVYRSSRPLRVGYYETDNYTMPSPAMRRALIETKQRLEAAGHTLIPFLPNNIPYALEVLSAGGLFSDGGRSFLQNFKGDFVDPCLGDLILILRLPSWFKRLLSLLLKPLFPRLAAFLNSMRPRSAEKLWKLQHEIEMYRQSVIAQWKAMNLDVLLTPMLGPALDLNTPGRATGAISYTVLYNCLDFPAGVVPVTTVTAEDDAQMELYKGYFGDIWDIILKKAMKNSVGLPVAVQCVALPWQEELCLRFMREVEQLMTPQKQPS
Procedure: Anandamide[ethanolamine-1-^3H-] was obtained from American Radiochemicals—with a specific activity of 60 Ci/mmol. All other reagents were obtained from Sigma-Aldrich. Optiphase Supermix was obtained from Perkin Elmer and activated charcoal was obtained from Sigma.
Frozen brains from 4 Wistar rats were homogenized in 20 ml 1 mM MgCl2, 20 mM HEPES (4-(2-hydroxyethyl)-1-piperazineethanesulfonic acid) pH 7.0 with Potter-Elvejhem (8 strokes at 500 rpm). Homogenates were centrifuged for 20 min at 36000 g at 4° C. (Beckman, 70Ti rotor). Pellets were resuspended in 15 ml of the same buffer and centrifuged under the same conditions. Pellets were resuspended in 15 ml of the same buffer and incubated for 15 min at 37° C. after which they were centrifuged for 20 min at 36000 g at 4° C. Each pellet was then resuspended in 10 ml 3 mM MgCl2, 1 mM EDTA (Ethylenediaminetetraacetic acid), 50 mM Tris (2-Amino-2-hydroxymethyl-propane-1,3-diol) pH 7.4 and protein determined with the BioRad Protein Assay (BioRad) using a standard curve of BSA (Bovine Serum Albumin) (50-250 μg/ml).
Reaction mix (total volume of 200 μl) contained: 2 μM AEA (2 μM AEA+5 nM ^3H-AEA), 0.1% fatty acid free BSA, 5 or 10 μg protein, in 1 mM EDTA, 10 mM Tris pH 7.6 and compound 1 at various concentrations. […] Counts per minute (CPM) or disintegrations per minute (DPM) were determined in a MicrobetaTriLux scintillation counter. […]

[6] = po, brain homogenate, 3 mg/kg po, 8 h, % remaining activity vs control, read-out: FAAH Activity (%) Br. h. 3 mg/kg. 8 h. po
[7] = po, liver homogenate, 3 mg/kg po, 8 h, % remaining activity vs control, read-out: FAAH Activity (%) Lv. h. 3 mg/kg. 8 h. po
[8] = 1 h, 3 mg/kg, read-out: FAAH Activity (%) mouse Liver
[9] = 8 h, 0.1 mg/kg, read-out: FAAH Activity (%) mouse Liver
[10] = 8 h, read-out: FAAH Activity (%) mouse Liver
[11] = 8 h, 3 mg/kg, read-out: FAAH Activity (%) mouse Liver

| SMILES | Peripheral Selectivity (FAAH [1]; 3 mg/kg po, 8 h) | activity at 3 mg/kg (FAAH [1]; [6]) [%] | activity at 3 mg/kg (FAAH [1]; [7]) [%] | factor by which most peripherally selective compound (FAAH [1]; compared with comparator compounds, 3 mg/kg po, 8 h) | fold more potent than comparator compound 2 (FAAH [1]; mouse liver, 0.1 mg/kg, 8 h post-dose) | activity at 3 mg/kg (FAAH [1]; [8]) [%] | activity at 0.1 mg/kg (FAAH [1]; [9]) [%] | activity at 1 mg/kg (FAAH [1]; [10]) [%] | activity at 3 mg/kg (FAAH [1]; [11]) [%] | activity at 10 mg/kg (FAAH [1]; [10]) [%] | ED50 (FAAH [2]) [mg/kg] | Metabolic Stability (% of Remaining) Mouse CYP+ [3] [%] | Metabolic Stability (% of Remaining) Mouse CYP− [3] [%] | Metabolic Stability (% of Remaining) Human CYP+ [4] [%] | Metabolic Stability (% of Remaining) Human CYP− [4] [%] | IC50 (FAAH [5]) [µM] | ED50 (FAAH [2]; Time 8 h) [mg/kg] |
| --- | --- | --- | --- | --- | --- | --- | --- | --- | --- | --- | --- | --- | --- | --- | --- | --- | --- |
| CN(C(=O)n1cnc(-c2cccc(NC(=N)N)c2)c1)C1CCCCC1 [Comparator Compound 1, N-cyclohexyl-4-(3-guanidinophenyl)-N-methyl-1H-imidazole-1-carboxamide] | 0.235 | 86.2 | 20.3 |  |  |  |  |  |  |  |  |  |  |  |  |  |  |
| CN(C(=O)n1cnc(-c2cccc(NC(N)=O)c2)c1)C1CCCC1 [Compound 1, N-Cyclopentyl-N-methyl-4-(3-ureidophenyl)-1H-imidazole-1-carboxamide] | 0.008 | 85.1 | 0.7 | > 2 | more than 10 fold | 1.9 | 6.4 | 1.6 | 0.7 | 0.4 | 0.03 | 96 | 95 | 82 | 99 | 0.027 |  |
| CN(C(=O)n1cnc(-c2ccc(F)c(O)c2)c1)C1CCCC1 [Comparator Compound 2, N-cyclopentyl-4-(4-fluoro-3-hydroxyphenyl)-N-methyl-1H-imidazole-1-carboxamide] | 0.017 | 121 | 2.1 |  |  | 17 | 73.8 | 4.9 | 2.1 | 1.2 |  | 53 | 92 | 70 | 92 |  | 0.17 |
